Measured values as given in patent US8143212B2 (Vicuron Pharmaceuticals Inc., priority 2002, dated 2012).

Legend:
[1] = tested on: Candida albicans SKF 2270; assay: MIC by broth microdilution (NCCLS) (Tables 42, 44); assay type: cell-based
[2] = tested on: panel of gram-positive bacteria; assay: MIC by broth microdilution (NCCLS) of IsoB0 and reference compounds (Table 44); assay type: cell-based
Procedure: Müller Hinton broth (Difco Laboratories, Detroit, Mich., USA) adjusted with CaCl2 and MgCl2 to a final concentrations of 20 mg/L and 10 mg/L respectively.
The microorganisms used are reference standard strains from the American Type Culture Collection (ATCC, Rockville, USA), Smith Kline and French Laboratories (SKF) and the Upjohn Company (UC, Kalamazoo, Mich., USA).
(§1) MICs were determined by the broth microdilution methodology following the standard NCCLS procedure, with or without 30% bovine serum, using bacterial inocula of approximately 5×10^5 CFU/mL. Tests were read after 20-24 h incubation at 35° C.

gram-negative bacteria [3] = assay: MIC by broth microdilution (NCCLS) (Table 42); assay type: cell-based
Procedure: (§2) Before dissolution, each sample was analyzed by HPLC and quantified.
(§3) The microorganisms used were reference strains obtained from the American Type Culture Collection (ATCC) (Rockville, Md.), SmithKline and French Laboratories (SKF), and the Upjohn Company (UC) (Kalamazoo, Mich.).
(§4) MICs were determined by the broth microdilution methodology following the standard NCCLS procedure (NCCLS Document M7-A6, Vol. 23, No. 2, “Methods for dilution antimicrobial susceptibility tests for bacteria that grow aerobically.” Approved Guideline. January 2003, which can be herein incorporated by reference in its entirety), with or without 30% adult bovine serum (BS) (PAA Laboratories GMBH, Haidmannweg Pasching Austria), using bacterial innocula at approximately 5×10^5 CFU/ml. The media employed included cation-adjusted Müller Hinton broth (Difco Laboratories, Detroit, Mich.) that was used that was adjusted with CaCl2 and MgCl2 to a final concentration of 20 mg/L and 10 mg/L, respectively. Tests were read following 20-24 hours of incubation at 35° C.

gram-negative bacteria [4] = conditions: E. coli ATCC25922 ref. strain; NCCLS M100 S-12; cited from earlier work
[5] = tested on: Escherichia coli, Proteus vulgaris, Pseudomonas aeruginosas; assay: MIC by broth microdilution (NCCLS) of IsoB0 and reference compounds (Table 44), non-gram-positive bacterial strains; assay type: cell-based
Procedure: as §1

gram positive bacteria = assay: MIC by broth microdilution (NCCLS), with or without 30% bovine serum (Table 42); assay type: cell-based
Procedure: as §2, §3, §4

[6] = E. faecalis ATCC29212 ref. strain
[7] = Enterococcus faecalis ATCC 7080
[8] = S. aureus ATCC 29213 ref. strain
[9] = Staphylococcus aureus Smith ATCC 19636
[10] = Pseudomonas aeruginosas ATCC 10145

Gentamycin [reference compound]
MIC ([1]; Candida albicans SKF 2270 (Table 42)): >128 µg/mL | MIC ([1]; Candida albicans SKF2270 (Table 44)): >128 µg/mL | MIC ([2]; Bacillus subtilis ATCC 6633): 0.25 µg/mL | MIC [2, 6]: 32 µg/mL | MIC [2, 7]: 8 µg/mL | MIC [2, 8]: 8 µg/mL | MIC ([2]; S. aureus Smith + 30% BS): ≦0.125 mg/L | MIC ([2]; S. epidermidis ATCC 12228): ≦0.125 mg/L | MIC ([2]; S. pneumoniae Felton UC41): 8 µg/mL | MIC [2, 9]: 0.5 µg/mL | MIC ([2]; Streptococcus pyogenes SKF13400): 4 µg/mL | MIC (gram-negative bacteria [3]; E. coli ATCC25922 ref. strain): 1 µg/mL | MIC (gram-negative bacteria [3]; Escherichia coli SKF 12140): 2 µg/mL | MIC (gram-negative bacteria [3]; Proteus vulgaris ATCC 881): 2 µg/mL | MIC (gram-negative bacteria [3]; [10]): 1 µg/mL | Quality control range of MICs for reference strains (gram-negative bacteria [4]): ^3GE 0.25-1 mg/L | MIC ([5]; E. coli ATCC25922 ref. strain): 1 µg/mL | MIC ([5]; Escherichia coli SKF 12140): 2 µg/mL | MIC ([5]; Proteus vulgaris ATCC 881): 2 µg/mL | MIC [5, 10]: 1 µg/mL | MIC (gram positive bacteria; Bacillus subtilis ATCC 6633): 0.25 µg/mL | MIC (gram positive bacteria; [6]): 32 µg/mL | MIC (gram positive bacteria; [7]): 8 µg/mL | MIC (gram positive bacteria; [8]): 8 µg/mL | MIC (gram positive bacteria; S. aureus Smith + 30% BS): ≦0.125 mg/L | MIC (gram positive bacteria; S. epidermidis ATCC 12228): ≦0.125 mg/L | MIC (gram positive bacteria; S. pneumoniae Felton UC41): 8 µg/mL | MIC (gram positive bacteria; [9]): 0.5 µg/mL | MIC (gram positive bacteria; Streptococcus pyrogenes SKF 13400): 4 µg/mL
